Test results reported in ChEMBL document CHEMBL6078692, “Discovery of PF-07265028, A Selective Small Molecule Inhibitor of Hematopoietic Progenitor Kinase 1 (HPK1) for the Treatment of Cancer” (J Med Chem, 2024).
≈ marks a conversion by molar mass, not a printed value.

How the values were obtained:
[1] = Selectivity ratio of IC50 for cytotoxicity against PBMC (unknown origin) assessed as inhibition of ATP level incubated for 3 days by Cell Titer Glo assay to IC50 for inhibition of SLP76 phosphorylation at Ser376 in human Jurkat cells incubated for 30 mins by HTRF assay; type: toxicity, cell-based; conditions: read-out: Ratio IC50
[2] = biological target: Mitogen-activated protein kinase kinase kinase kinase 1 (Homo sapiens, UniProt Q92918); experiment: Inhibition of full-length recombinant human HPK1 (1 to 182 residues) extracted from baculovirus infected Sf21 cells using phospho-acceptor peptide as substrate incubated for 15 mins in presence of ATP by fluorescence based assay
Sequence of Mitogen-activated protein kinase kinase kinase kinase 1 (Q92918 whole entry, the tested form may be a part): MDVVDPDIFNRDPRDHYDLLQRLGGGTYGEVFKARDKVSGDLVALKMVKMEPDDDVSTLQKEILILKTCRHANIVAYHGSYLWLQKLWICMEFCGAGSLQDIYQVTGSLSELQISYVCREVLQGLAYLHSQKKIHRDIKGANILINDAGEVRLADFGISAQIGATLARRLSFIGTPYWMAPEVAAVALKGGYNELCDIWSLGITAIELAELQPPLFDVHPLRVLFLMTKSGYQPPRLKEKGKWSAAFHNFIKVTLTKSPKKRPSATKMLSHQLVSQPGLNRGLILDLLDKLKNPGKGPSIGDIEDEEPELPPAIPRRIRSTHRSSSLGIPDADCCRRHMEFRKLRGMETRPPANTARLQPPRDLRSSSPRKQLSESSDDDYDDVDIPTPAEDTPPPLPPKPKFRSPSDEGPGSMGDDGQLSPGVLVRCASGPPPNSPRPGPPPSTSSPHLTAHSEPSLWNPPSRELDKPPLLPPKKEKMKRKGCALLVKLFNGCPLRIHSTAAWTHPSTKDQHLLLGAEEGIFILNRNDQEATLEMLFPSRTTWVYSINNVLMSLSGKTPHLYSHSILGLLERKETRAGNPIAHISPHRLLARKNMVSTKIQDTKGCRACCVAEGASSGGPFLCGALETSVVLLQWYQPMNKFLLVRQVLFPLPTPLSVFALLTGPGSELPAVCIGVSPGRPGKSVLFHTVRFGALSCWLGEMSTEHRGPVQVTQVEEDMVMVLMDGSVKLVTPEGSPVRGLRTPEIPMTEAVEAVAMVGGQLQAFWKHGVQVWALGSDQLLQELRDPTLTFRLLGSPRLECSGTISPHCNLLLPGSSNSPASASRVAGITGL

[3] = Induction of IL-2 production in human T cells pretreated for 30 mins followed by anti-CD3/CD28 stimulation for 24 hrs by MSD analysis; type: functional, cell-based; conditions: T-cell
[4] = Cytotoxicity against PBMC (unknown origin) assessed as inhibition of ATP level incubated for 3 days by Cell Titer Glo assay; type: toxicity, cell-based
[5] = Lipophilicity, logD of compound in octanol/water by shake flask method; type: physicochemical
Homo sapiens = species on record: Homo sapiens; experiment: Selectivity ratio of Ki for N-terminal 6xHis-tagged human recombinant full-length LCK to Ki for full-length recombinant human HPK1 (1 to 182 residues) expressed in baculovirus infected Sf21 cells
[6] = Stability in human plasma assessed as half life measured for 120 mins by LC-MS/MS analysis; type: ADME, cell-free
[7] = Intrinsic clearance in human hepatocytes measured per million cells at 1 uM measured for 240 mins by LC-MS/MS analysis; type: ADME, cell-based, Hepatocyte; conditions: read-out: CLH
[8] = Kinetic solubility of compound at pH 7.4 incubated for 24 hrs by MS/MS analysis; type: physicochemical; conditions: buffer, read-out: Kinetic_solubility
[9] = Permeability in RRCK cells; type: ADME, cell-based, Canis lupus familiaris, MDCKII-LE; conditions: dog, MDCK; read-out: permeability
[10] = Unbound clearance in monkey at 1 mg/kg, po or 0.5 mg/kg, iv; type: ADME, organism-based, Macaca mulatta; conditions: rhesus monkey, in vivo
[11] = Oral bioavailability in monkey at 1 mg/kg, po; type: ADME, organism-based, Macaca mulatta; conditions: rhesus monkey, in vivo
[12] = Clearance in mouse at 15 mg/kg, po or 1 mg/kg, iv; type: ADME, organism-based; conditions: in vivo
[13] = Oral bioavailability in mouse at 15 mg/kg, po; type: ADME, organism-based; conditions: in vivo
[14] = Tmax in mouse at 15 mg/kg, po or 1 mg/kg, iv; type: ADME, organism-based; conditions: in vivo
[15] = Volume of distribution at steady state in monkey at 1 mg/kg, po or 0.5 mg/kg, iv; type: ADME, organism-based, Macaca mulatta; conditions: rhesus monkey, in vivo
[16] = Tmax in monkey at 1 mg/kg, po or 0.5 mg/kg, iv; type: ADME, organism-based, Macaca mulatta; conditions: rhesus monkey, in vivo
[17] = Terminal half life in mouse at 15 mg/kg, po or 1 mg/kg, iv; type: ADME, organism-based; conditions: in vivo, read-out: beta t1/2 (converted)
[18] = Clearance in monkey at 1 mg/kg, po or 0.5 mg/kg, iv; type: ADME, organism-based, Macaca mulatta; conditions: rhesus monkey, in vivo
[19] = Unbound clearance in mouse at 15 mg/kg, po or 1 mg/kg, iv; type: ADME, organism-based; conditions: in vivo
[20] = Volume of distribution at steady state in mouse at 15 mg/kg, po or 1 mg/kg, iv; type: ADME, organism-based; conditions: in vivo
[21] = Terminal half life in monkey at 1 mg/kg, po or 0.5 mg/kg, iv; type: ADME, organism-based, Macaca mulatta; conditions: rhesus monkey, in vivo, read-out: beta t1/2 (converted)

| Structure (SMILES) | selectivity ratio at 3 days [1] | IC50 [2] | EC50 [3] | IC50 at 3 days [4] | logD [5] | Ratio Ki (Homo sapiens) | hepatocyte CLint at 1 µM [7] | Papp [9] | other results |
| --- | --- | --- | --- | --- | --- | --- | --- | --- | --- |
| C[C@@H]1CCCN1c1cc2c(c([C@@H](C)N)n1)CN(c1cccc(-c3nnc4n3[C@@H](C)CC4)n1)C2=O | 21 | < 0.05 nM | 62 nM | 1100 nM | 2.3 | – | – | – | – |
| CCC(C)n1cnnc1-c1cccc(NC(=O)c2cccc3c2OCC(N)C3)n1 (stereo not drawn) | – | 2.2 nM | – | – | 1.7 | > 230 | – | – | half-life [6]: 203 min |
| CNCc1nc(N(C)C)cc2c1CN(c1cccc(-c3nncn3C(C)C)n1)C2=O | – | 0.15 nM | – | – | 0.8 | 1600 | – | – | – |
| CC[C@@H](N)c1nc(N2CCC[C@H]2C)cc2c1CN(c1cccc(-c3nncn3CC)n1)C2=O | 42 | < 0.09 nM | 142 nM | 2200 nM | 2.3 | – | – | – | – |
| CNCc1cc(OC)cc2c1CN(c1cccc(-c3nncn3C(C)C)n1)C2=O | 5 | 1.1 nM | – | 1700 nM | 1.1 | > 470 | 10 µL/min/1e6 cells | 27 ×10⁻⁶ cm/s | solubility kinetic at 24 h [8]: 495 µM (≈ 194 µg/mL) |
| CCCn1cnnc1-c1cccc(N2Cc3c(cc(N4CCC[C@H]4C)nc3CNC)C2=O)n1 | 32 | < 0.06 nM | 38 nM | 1100 nM | 2.1 | – | 23 µL/min/1e6 cells | 15.1 ×10⁻⁶ cm/s | – |
| COc1ccc2c(c1CN)CN(c1cccc(-c3nncn3[C@@H](C)CC(F)(F)F)n1)C2=O | – | 2.5 nM | – | – | 0.7 | > 140 | < 2.3 µL/min/1e6 cells | 2.9 ×10⁻⁶ cm/s | solubility kinetic at 24 h [8]: 372 µM (≈ 166 µg/mL) |
| CNCc1nc(N(C)C)cc2c1CN(c1cccc(-c3nncn3[C@@H](C)CC(F)(F)F)n1)C2=O | – | < 0.05 nM | – | – | 1.3 | > 260 | – | – | – |
| CCCn1cnnc1-c1cccc(N2Cc3c(cc(N(C)C(C)C)nc3CNC)C2=O)n1 | 24 | < 0.13 nM | 74 nM | 2100 nM | 2 | – | 15 µL/min/1e6 cells | 19.3 ×10⁻⁶ cm/s | – |
| CC[C@H]1CCc2nnc(-c3cccc(N4Cc5c(cc(N(C)C(C)C)nc5CNC)C4=O)n3)n21 | 13 | < 0.06 nM | 116 nM | 500 nM | 2.2 | – | – | – | – |
| CCCn1cnnc1-c1cccc(N2Cc3c(cc(N(C)C)nc3CNC)C2=O)n1 | 29 | 0.27 nM | 97 nM | 3500 nM | 1 | – | 5.2 µL/min/1e6 cells | 17.7 ×10⁻⁶ cm/s | – |
| COc1ccc(CC#N)cc1C(=O)Nc1cccc(-c2nncn2C(C)C)n1 | – | 14 nM | – | – | 2.3 | 6 | – | – | – |
| CNCc1nc(N(C)C(C)C)cc2c1CN(c1cccc(-c3nnc4n3[C@@H](CF)CC4)n1)C2=O | 25 | 0.07 nM | 64 nM | 1300 nM | 1.6 | – | – | – | – |
| CNCc1cc(OC)cc2c1CN(c1cccc(-c3nncn3[C@@H](C)CC(F)(F)F)n1)C2=O | 4 | 0.3 nM | – | 487 nM | 1.6 | 210 | 11 µL/min/1e6 cells | 20.4 ×10⁻⁶ cm/s | solubility kinetic at 24 h [8]: 202 µM (≈ 93 µg/mL) |
| CC(C)n1cnnc1-c1cccc(N2Cc3c(CN)cccc3C2=O)n1 | – | 194 nM | – | – | 0.7 | > 3 | – | – | half-life [6]: > 360 min; solubility kinetic at 24 h [8]: > 600 µM |
| CC[C@H](C)n1cnnc1-c1cccc(NC(=O)c2cccc3c2nc(CN)n3C)n1 | – | 2.7 nM | – | – | 2 | 37 | – | – | half-life [6]: 126 min |
| CC(C)n1cnnc1-c1cccc(NC(=O)c2cccc3c2nc(CN)n3C)n1 | – | 10 nM | – | – | 1.7 | > 45 | – | – | – |
| CCCn1c(C)nnc1-c1cccc(N2Cc3c(cc(N(C)C(C)C)nc3CNC)C2=O)n1 | > 41 | < 0.17 nM | 154 nM | > 3300 nM | 2 | – | – | – | – |
| CNCc1nc(N(C)C(C)C)cc2c1CN(c1cccc(-c3nnc4n3[C@@H](C)CC4)n1)C2=O | 11 | < 0.05 nM | 47 nM | 500 nM | 1.9 | – | – | – | – |
| CC[C@@H](N)c1nc(N2CCC[C@H]2C)cc2c1CN(c1cccc(-c3nnc4n3[C@@H](C)CC4)n1)C2=O | – | – | 59 nM | 800 nM | 2.5 | – | 56 µL/min/1e6 cells | 8.3 ×10⁻⁶ cm/s | CL free [10]: 143 mL/min/kg; bioavailability [11]: 20%; clearance [12]: 39 mL/min/kg; bioavailability [13]: 38%; Tmax [14]: 2 h; Vdss [15]: 3.7 L/kg; Tmax [16]: 1 h; half-life [17]: 198 min; clearance [18]: 14 mL/min/kg; CL free [19]: 690 mL/min/kg; solubility kinetic at 24 h [8]: 260 µM (≈ 123 µg/mL); Vdss [20]: 4.9 L/kg; half-life [21]: 258 min |
| CC(C)n1cnnc1-c1cccc(N2Cc3c(CO)cccc3C2=O)n1 | – | 22 nM | – | – | 2.1 | > 13 | – | – | solubility kinetic at 24 h [8]: < 0.1 µM |
| CC(C)n1cnnc1-c1cccc(NC(=O)c2cccc3c2OCC(N)C3)n1 (stereo not drawn) | – | 7.7 nM | – | – | 1.2 | > 65 | – | – | – |
